Target: T1, human AT1 receptor (Homo sapiens, UniProt P30556)
T1 construct: expressed in transfected cells; host or cells: CHO-K1
T1 sequence (P30556 1-359): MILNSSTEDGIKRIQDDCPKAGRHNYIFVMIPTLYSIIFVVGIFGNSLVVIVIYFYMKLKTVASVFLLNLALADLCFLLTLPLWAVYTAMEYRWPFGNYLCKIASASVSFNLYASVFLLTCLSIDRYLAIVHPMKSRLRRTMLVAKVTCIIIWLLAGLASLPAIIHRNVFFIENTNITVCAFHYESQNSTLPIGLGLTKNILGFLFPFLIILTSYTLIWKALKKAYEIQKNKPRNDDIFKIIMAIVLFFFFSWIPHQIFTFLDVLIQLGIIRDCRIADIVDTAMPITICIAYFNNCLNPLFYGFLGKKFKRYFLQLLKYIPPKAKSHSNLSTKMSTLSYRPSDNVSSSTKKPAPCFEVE
Assay: AT1 radioligand binding assay (Assay 1)
Details: displacement of [Eu]AngII 2 nM, membranes of CHO-K1 cells expressing human AT1 receptor
Method: These in vitro assays were used to assess the ability of test compounds to bind to the AT1 and the AT2 receptors.
Chinese hamster ovary (CHO-K1) derived cell lines stably expressing the cloned human AT1 or AT2 receptors, respectively, were grown in HAM's-F12 medium supplemented with 10% fetal bovine serum, 10 μg/ml penicillin/streptomycin, and 500 μg/ml geneticin in a 5% CO2 humidified incubator at 37° C. AT2 receptor expressing cells were grown in the additional presence of 100 nM PD123,319 (AT2 antagonist). When cultures reached 80-95% confluence, the cells were washed thoroughly in PBS and lifted with 5 mM EDTA. […]
Binding assays were performed in 96-well Acrowell filter plates (Pall Inc., cat. #5020) in a total assay volume of 100 μL, with 0.2 μg membrane protein for membranes containing the human AT1 receptor, or 2 μg membrane protein for membranes containing the human AT2 receptor in assay buffer (50 mM Tris/HCl pH 7.5 at 20° C., 5 mM MgCl2, 25 μM EDTA, 0.025% BSA). […] Non-specific binding was determined in the presence of 10 μM unlabeled angiotensin-II. […] Filter-bound [Eu]AngII was quantitated immediately on a Fusion plate reader (PerkinElmer) using Time Resolved Fluorescence (TRF). Binding data were analyzed by nonlinear regression analysis with the GraphPad Prism Software package (GraphPad Software, Inc., San Diego, Calif.) using the 3-parameter model for one-site competition. […]

4′-2-Butyl-4-chloro-5-[((S)-2-mercaptomethyl-4-methylpentanoylamino)methyl]imidazol-1-ylmethylbiphenyl-2-carboxylic Acid [Example 1]
pKi at the AT1 receptor: greater than 7.0

Source: patent US8349875B2, “Dual-acting antihypertensive agents” (Theravance, Inc., priority 2007, dated 2013)
